Source: patent US20250122225A1, “MASP-2 INHIBITORS AND METHODS OF USE” (Omeros Corporation, priority 2023, published 2025)
Structures can show the parent of a compound that is named as a salt.

What was measured:
[1] = target: T1, MASP-2 (CCP1-CCP2-SP) (Homo sapiens, UniProt O00187); assay: Enzymatic assay for MASP-2 inhibitory activity (fluorogenic substrate); type: biochemical
T1 construct: 15 μL of Enzyme MASP-2 (CCP1-CCP2-SP) in Assay Buffer
Outline: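 Fluorescence was normalized between no-enzyme and DMSO-only controls to derive % activity, with IC50 taken as equivalent to Ki except for tight-binding inhibitors. Reactions ran 20 min at room temperature in HEPES pH 7.4/NaCl/Tween 20 buffer, using the C2-derived fluorogenic substrate, before acetic acid stop.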

[2] = target: T2, human α-thrombin (Homo sapiens, UniProt P00734); assay: Enzymatic assay for thrombin (fluorogenic peptide substrate Boc-VPR-AMC); type: biochemical
T2 construct: enzyme (human α-thrombin (BioPharm® Lab.)) in assay buffer; purchased BioPharm® Lab
Outline: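 Assay conditions kept the reaction linear in time, enzyme and substrate, so IC50 approximated Ki apart from tight- or slow-binding cases. Boc-VPR-AMC cleavage by human α-thrombin proceeded 20 min at room temperature in Hepes pH 7.4/NaCl/Tween 20 buffer, then was acid-quenched and read by fluorescence.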

T1 sequence (O00187 445-686 limits assumed): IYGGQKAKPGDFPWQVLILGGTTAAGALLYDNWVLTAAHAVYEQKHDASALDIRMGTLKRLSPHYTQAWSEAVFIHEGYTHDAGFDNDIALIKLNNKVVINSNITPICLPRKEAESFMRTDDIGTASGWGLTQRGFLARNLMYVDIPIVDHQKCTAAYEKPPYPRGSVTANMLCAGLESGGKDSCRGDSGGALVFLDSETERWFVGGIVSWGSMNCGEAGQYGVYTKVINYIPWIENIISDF
T1 sequence (O00187 287-444 partner limits assumed): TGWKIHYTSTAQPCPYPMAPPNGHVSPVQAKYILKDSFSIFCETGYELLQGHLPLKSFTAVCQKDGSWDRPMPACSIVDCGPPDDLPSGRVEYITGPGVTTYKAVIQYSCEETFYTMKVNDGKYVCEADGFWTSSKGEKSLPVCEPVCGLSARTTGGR

| SMILES | Ki [1] [nM] | Ki [2] [nM] |
| --- | --- | --- |
| O=C(NCc1cc2cnccc2[nH]1)[C@@H]1CCc2cnc(NCCc3ccccc3)c(=O)n21 [Compound 248] | < 500 | < 500 |
| Cc1nc(N)ccc1CNC(=O)[C@@H]1CCc2cnc(NCc3ccc4c(cnn4C)c3)c(=O)n21 [Compound 172] | < 500 | < 500 |
| CC[C@@H](Nc1ncc2n(c1=O)[C@H](C(=O)N[C@@H](C)c1cc3c(s1)CNC3)CC2)c1ccccc1 [Compound 278] | < 500 | 10000 to 25000 |
| Cc1ccc(F)c(CNc2ncc3n(c2=O)[C@H](C(=O)NCc2ccc(N)nc2C)CC3)c1 [Compound 77, (S)-N-((6-amino-2-methylpyridin-3-yl)methyl)-3-((2-fluoro-5-methylbenzyl)amino)-4-oxo-4,6,7,8-tetrahydropyrrolo[1,2-a]pyrazine-6-carboxamide] | < 500 | < 500 |
| [2H]C([2H])([2H])c1nc(NCc2cc(C)cc(F)c2)c(=O)n2c1CC[C@H]2C(=O)NCc1ccc(N)nc1C [Compound 218, (S)-N-((6-amino-2-methylpyridin-3-yl)methyl)-3-((3-fluoro-5-methylbenzyl)amino)-1-(methyl-d3)-4-oxo-4,6,7,8-tetrahydropyrrolo[1,2-a]pyrazine-6-carboxamide trifluoroacetate] | < 500 | < 500 |
| O=C(NCc1cc2cnccc2[nH]1)[C@@H]1CCc2c(Cl)nc(NCCC(F)F)c(=O)n21 [Compound 19, (S)-N-((1H-pyrrolo[3,2-c]pyridin-2-yl)methyl)-1-chloro-3-((3,3-difluoropropyl)amino)-4-oxo-4,6,7,8-tetrahydropyrrolo[1,2-a]pyrazine-6-carboxamide] | < 500 | > 25000 |
| Cc1cc(F)cc(CNc2nc(C3CCCCC3)c3n(c2=O)[C@H](C(=O)NCc2ccc(N)nc2C)CC3)c1 [Compound 176, (S)—N-((6-amino-2-methylpyridin-3-yl)methyl)-1-cyclohexyl-3-((3-fluoro-5-methylbenzyl)amino)-4-oxo-4,6,7,8-tetrahydropyrrolo[1,2-a]pyrazine-6-carboxamide DI-trifluoroacetate] | < 500 | 10000 to 25000 |
| Cc1ccc(C)c(CNc2nc(Cl)c3n(c2=O)[C@H](C(=O)NCc2ccc(N)nc2C)CC3)c1 [Compound 10, (S)-N-((6-amino-2-methylpyridin-3-yl)methyl)-1-chloro-3-((2,5-dimethylbenzyl)amino)-4-oxo-4,6,7,8-tetrahydropyrrolo[1,2-a]pyrazine-6-carboxamide] | < 500 | 500 to 2500 |
| Cc1cc(C)cc(CNc2ncc3n(c2=O)[C@H](C(=O)NCc2cc4c(s2)CNC4)CC32CC2)c1 [Compound 126, (S)—N-((5,6-dihydro-4H-thieno[2,3-c]pyrrol-2-yl)methyl)-3′-((3,5-dimethylbenzyl)amino)-4′-oxo-6′,7′-dihydro-4′H-spiro[cyclopropane-1,8′-pyrrolo[1,2-a]pyrazine]-6′-carboxamide] | < 500 | 500 to 2500 |
| O=C(NCc1cc2cnccc2[nH]1)[C@@H]1CCc2cnc(N3CC(c4ccccc4)C3)c(=O)n21 [Compound 84, (S)-N-((1H-pyrrolo[3,2-c]pyridin-2-yl)methyl)-4-oxo-3-(3-phenylazetidin-1-yl)-4,6,7,8-tetrahydropyrrolo[1,2-a]pyrazine-6-carboxamide] | 500 to 2500 | 10000 to 25000 |
| Cc1cc(C)cc(CNc2nc(Cl)c3n(c2=O)[C@H](C(=O)NCc2cccnc2C)CC3)c1 [Compound 89, trifluoroacetate] | 2500 to 10000 | > 25000 |
| Cc1cc2[nH]c(CNC(=O)[C@@H]3CCc4cnc(NCc5ccccc5)c(=O)n43)cc2cn1 [Compound 103, (S)-3-(benzylamino)-N-((6-methyl-1H-pyrrolo[3,2-c]pyridin-2-yl)methyl)-4-oxo-4,6,7,8-tetrahydropyrrolo[1,2-a]pyrazine-6-carboxamide] | < 500 | > 25000 |
| Cc1cc(C)cc(CNc2nc(Cl)c3n(c2=O)[C@H](C(=O)NCc2ccc(N)nc2C)CC3)c1 [Compound 24, trifluoroacetate] | < 500 | 2500 to 10000 |
| O=C(NCc1cc2cnccc2[nH]1)[C@@H]1CCc2c(Cl)nc(NCC3(c4ccccc4)CC3)c(=O)n21 [Compound 245] | < 500 | 500 to 2500 |
| Nc1nc2cc(CNC(=O)[C@@H]3CCc4c(Cl)nc(NCc5ccccc5)c(=O)n43)ccc2[nH]1 [Compound 29, trifluoroacetate] | < 500 | 10000 to 25000 |
| Cc1cc(C)cc(CNc2ncc3n(c2=O)[C@H](C(=O)NCc2cc4c(s2)CN(C)C4)CC3)c1 [Compound 42, (S)-3-((3,5-dimethylbenzyl)amino)-N-((5-methyl-5,6-dihydro-4H-thieno[2,3-c]pyrrol-2-yl)methyl)-4-oxo-4,6,7,8-tetrahydropyrrolo[1,2-a]pyrazine-6-carboxamide trifluoroacetate] | < 500 | 10000 to 25000 |

| SMILES | Ki [1] [nM] | Ki [2] [nM] |
| --- | --- | --- |
| O=C(NCc1cc2cnccc2[nH]1)[C@@H]1CCc2c(Cl)nc(NCc3ccc4c(c3)CCCC4)c(=O)n21 [Compound 162, (S)—N-((1H-pyrrolo[3,2-c]pyridin-2-yl)methyl)-1-chloro-4-oxo-3-(((5,6,7,8-tetrahydronaphthalen-2-yl)methyl)amino)-4,6,7,8-tetrahydropyrrolo[1,2-a]pyrazine-6-carboxamide] | < 500 | > 25000 |
| Cc1cc(C)cc(CNc2ncc3n(c2=O)[C@H](C(=O)NCc2cc4cnc(C)cc4[nH]2)CC3)c1 [Compound 50, (S)-3-((3,5-dimethylbenzyl)amino)-N-((6-methyl-1H-pyrrolo[3,2-c]pyridin-2-yl)methyl)-4-oxo-4,6,7,8-tetrahydropyrrolo[1,2-a]pyrazine-6-carboxamide] | < 500 | 10000 to 25000 |
| Cc1cc(C)cc(CNc2ncc3n(c2=O)[C@H](C(=O)NCc2ccc(N)nc2)CC3)c1 [Compound 87, (S)-N-((6-aminopyridin-3-yl)methyl)-3-((3,5-dimethylbenzyl)amino)-4-oxo-4,6,7,8-tetrahydropyrrolo[1,2-a]pyrazine-6-carboxamide] | < 500 | < 500 |
| N=C(N)c1ccc(CNC(=O)[C@@H]2CCc3c(Cl)nc(NCc4ccccc4)c(=O)n32)cc1 [Compound 243] | < 500 | < 500 |
| O=C(NCc1cc2c(s1)CNC2)[C@@H]1CCc2cnc(NC3(c4ccccc4)CCC3)c(=O)n21 [Compound 261, (S)-N-((5,6-dihydro-4H-thieno[2,3-c]pyrrol-2-yl)methyl)-4-oxo-3-((1-phenylcyclobutyl)amino)-4,6,7,8-tetrahydropyrrolo[1,2-a]pyrazine-6-carboxamide trifluoroacetate] | < 500 | < 500 |
| COc1cc(F)cc(CNc2ncc3n(c2=O)[C@H](C(=O)N[C@H](C)c2ccc(N)nc2)CC3)c1 [Compound 200, (S)-N-((R)-1-(6-aminopyridin-3-yl)ethyl)-3-((3-fluoro-5-methoxybenzyl)amino)-4-oxo-4,6,7,8-tetrahydropyrrolo[1,2-a]pyrazine-6-carboxamide trifluoroacetate] | < 500 | 2500 to 10000 |
| O=C(NCc1cc2c(s1)CNC2)[C@@H]1CCc2c(Cl)nc(NCCc3ccccc3)c(=O)n21 [Compound 242] | < 500 | < 500 |
| O=C(NCc1cc2cnccc2[nH]1)[C@@H]1CCc2c(Cl)nc(NCc3cccc(CO)c3)c(=O)n21 [Compound 6, (S)-N-((1H-pyrrolo[3,2-c]pyridin-2-yl)methyl)-1-chloro-3-((3-(hydroxymethyl)benzyl)amino)-4-oxo-4,6,7,8-tetrahydropyrrolo[1,2-a]pyrazine-6-carboxamide] | < 500 | 2500 to 10000 |
| Cc1ccc(CNc2ncc3n(c2=O)[C@H](C(=O)NCc2cc4cnccc4[nH]2)CC3)cc1C [Compound 44, (S)-N-((1H-pyrrolo[3,2-c]pyridin-2-yl)methyl)-3-((3,4-dimethylbenzyl)amino)-4-oxo-4,6,7,8-tetrahydropyrrolo[1,2-a]pyrazine-6-carboxamide] | < 500 | 500 to 2500 |
| Cc1nc(N)ccc1CNC(=O)C1CCc2c(Cl)nc(NCc3cnccn3)c(=O)n21 (centres unmarked) [Compound 149, N-((6-amino-2-methylpyridin-3-yl)methyl)-1-chloro-4-oxo-3-((pyrazin-2-ylmethyl)amino)-4,6,7,8-tetrahydropyrrolo[1,2-a]pyrazine-6-carboxamide] | < 500 | 2500 to 10000 |
| COc1cc(C)cc(CNc2ncc3n(c2=O)[C@@H](C(=O)NCc2cc4cnccc4[nH]2)CC3)c1 [Compound 164] | < 500 | 2500 to 10000 |
| O=C(NCc1cc2cnccc2[nH]1)[C@@H]1CCc2c(Cl)nc(NCCc3ccccc3)c(=O)n21 [Compound 249] | < 500 | 500 to 2500 |
| Cc1cc(C)cc(CNc2ncc3n(c2=O)[C@H](C(=O)NCc2ccc4[nH]ncc4c2)CC3)c1 [Compound 281, (S)—N-((1H-indazol-5-yl)methyl)-3-((3,5-dimethylbenzyl)amino)-4-oxo-4,6,7,8-tetrahydropyrrolo[1,2-a]pyrazine-6-carboxamide] | < 500 | 500 to 2500 |
| COc1cc(C)cc(CNc2ncc3n(c2=O)[C@H](C(=O)NCc2cc4cnccc4[nH]2)C[C@@H]3Cc2ccccc2)c1 [Compound 141, (6S,8S)-N-((1H-pyrrolo[3,2-c]pyridin-2-yl)methyl)-8-benzyl-3-((3-methoxy-5-methylbenzyl)amino)-4-oxo-4,6,7,8-tetrahydropyrrolo[1,2-a]pyrazine-6-carboxamide] | < 500 | 500 to 2500 |
| O=C(NCc1cc2cnccc2[nH]1)[C@@H]1CCc2c(Cl)nc(NCC3CCOCC3)c(=O)n21 [Compound 101, trifluoroacetate] | < 500 | > 25000 |
